Format in all cases: cell-based
For test [1], the system named is MCF7 cells (ATCC #HTB-22). Put plainly: Cellular growth inhibition assay, MCF7 cells purchased from ATCC. The following applies: Table 8-A, MCF7 cells purchased from ATCC, six days, CellTiter-Glo, read-out: GI50. A digest of the protocol: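 MCF7 cells in RPMI 1640 with 10% FBS and 0.2 U/ml insulin, seeded at 1,500 cells/well (ATCC) or 225 cells/well (ECACC). Compounds added 24 h later, then 6 days at 37° C. Viability by CellTiter-Glo 2.0 luminescence. GI50 from four-parameter fit.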
On the technique in general: Cellular ATP, detected with luciferase, serves as a proxy for viable cell number.

Test [2] deals with T-Rex 293 cells having increased expression of estrogen receptor alpha protein. Put plainly: Cellular growth inhibition assay, T-Rex 293 cells, (+) doxycycline. The following applies: 72 hours. The procedure, abridged:
(§1)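 Viability read-out was CellTiter-Glo 2.0 luminescence after 72 h compound exposure, normalized to zero luminescence and fitted by four-parameter regression to give GI50. Cells were an ERα-inducible T-Rex 293 clone cultured with or without 3 ng/mL doxycycline in charcoal-stripped, phenol red-free medium.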

Test [3] concerns T-Rex 293 cells lacking increased expression of estrogen receptor alpha protein. Put plainly: Cellular growth inhibition assay, T-Rex 293 cells, (−) doxycycline. The following applies: 72 hours. The procedure, abridged: as §1
Where [4] appears, read: T-REx-293, 72 h, T-Rex 293 cells with doxycycline-induced ERα expression, CellTiter-Glo 2.0, read-out: (+) Dox TRex ERa (GI50).
The mark [5] stands for this setting: T-REx-293, 72 h, T-Rex 293 cells without doxycycline, CellTiter-Glo 2.0, read-out: (−) Dox TRex ERa (GI50).
The mark [6] stands for this setting: T-REx-293, 72 h, Table 7-A, T-Rex 293 cells with doxycycline (increased ERα expression), CellTiter-Glo, read-out: (+) Dox GI50.
[7] abbreviates: T-REx-293, 72 h, Table 7-A, T-Rex 293 cells without doxycycline (lacking increased ERα expression), CellTiter-Glo, read-out: (−) Dox GI50.

Like-named read-outs stand apart in the source and are kept apart here.

One may read the GI50 as the concentration that inhibits growth by half.

As to `Cc1sc2c(c1C)C(c1ccc(OC3CC4(CCN(c5ccc(C(=O)c6c(-c7ccc(O)cc7)sc7cc(O)ccc67)cc5)CC4)C3)cc1)=N[C@@H](Cc1ncco1)c1nnc(C)n1-2` (single isomer, unassigned) [I-26, (6-hydroxy-2-(4-hydroxyphenyl)benzo[b]thiophen-3-yl)(4-(2-(4-(2,3,9-trimethyl-6-(oxazol-2-ylmethyl)-6H-thieno[3,2-f][1,2,4]triazolo[4,3-a][1,4]diazepin-4-yl)phenoxy)-7-azaspiro[3.5]nonan-7-yl)phenyl)methanone], the GI50 was < 50 nM in test [1] (Homo sapiens, MCF7, 144 h); < 50 nM in test [2] (setting [4]); 50 to 500 nM in test [3] (setting [5]).
Consider `Cc1sc2c(c1C)C(c1ccc(N3CCC(O)(CN4CCN(c5ccc([C@H]6c7ccc(O)cc7CC[C@H]6c6ccc(F)cc6)cc5)CC4)CC3)cc1)=N[C@H](Cc1ncco1)c1nnc(C)n1-2` [III-207], for which the GI50 in test [1] (Homo sapiens, MCF7, 144 h) was 500 to 2500 nM; in test [2] (setting [6]) it was > 2500 nM; in test [3] (setting [7]), > 2500 nM.
Take `Cc1sc2c(c1C)C(c1ccc(CN3CCC4(CC3)CCN(c3ccc([C@@H]5c6ccc(O)cc6CC[C@@H]5c5ccccc5)cc3)CC4)cc1)=N[C@@H](C)c1nnc(C)n1-2` [III-115]: the 50% growth inhibitory concentration (GI50) in test [1] (Homo sapiens, MCF7, 144 h) was 50 to 500 nM; in test [2] (setting [6]) it was 50 to 500 nM; in test [3] (setting [7]), 500 to 2500 nM.
Regarding `Cc1sc2c(c1C)C(c1ccc(N3CC(O)(CC4CN(CC5CN(c6ccc(C7=C(c8ccccc8)CCCc8cc(C(=O)O)ccc87)cc6)C5)C4)C3)cc1)=N[C@@H](C)c1nnc(C)n1-2` [IV-43], the concentration for 50% growth inhibition (GI50) in test [1] (Homo sapiens, MCF7, 144 h) is < 50 nM; in test [2] (setting [6]), < 50 nM; in test [3] (setting [7]), 50 to 500 nM.
For the compound `Cc1sc2c(c1C)C(c1ccc(N3CC(CC4CN(CC5CN(c6ccc(C7=C(c8ccccc8)CCCc8cc(C(=O)O)ccc87)cc6)C5)C4)C3)cc1)=N[C@@H](C)c1nnc(C)n1-2` [IV-23], the GI50 in test [1] (Homo sapiens, MCF7, 144 h) was < 50 nM; in test [2] (setting [6]), < 50 nM; in test [3] (setting [7]), 50 to 500 nM.
Take `CC1=C(c2c(F)cc(F)cc2F)C(c2ccc(N3CCC4(CCN(C(=O)Cc5ccc(C6=N[C@@H](C)c7nnc(C)n7-c7sc(C)c(C)c76)cc5)C4)CC3)cc2)Oc2ccc(O)cc21` (stereo partly drawn) [V-18]: the GI50 in test [1] (Homo sapiens, MCF7, 144 h) was in the range of 50 to 500 nM; in test [2] (setting [6]) it was 50 to 500 nM; in test [3] (setting [7]) it was 50 to 500 nM.
`Cc1sc2c(c1C)C(c1ccc(C3CN(C(=O)C4CCN(CC5CN(c6ccc([C@@H]7c8ccc(O)cc8CC[C@@H]7c7ccccc7)cc6)C5)CC4)C3)cc1)=N[C@@H](C)c1nnc(C)n1-2` [III-172]: the GI50 in test [1] (Homo sapiens, MCF7, 144 h) was 50 to 500 nM; in test [2] (setting [6]), < 50 nM; in test [3] (setting [7]) it was 50 to 500 nM.
As to `Cc1sc2c(c1C)C(c1ccc(N3CCC(O)(CN4CCC(c5ccc([C@H]6c7ccc(O)cc7CC[C@H]6c6ccccc6)cc5)CC4)CC3)cc1)=N[C@@H](C)c1nnc(C)n1-2` [III-24], the 50% growth inhibitory concentration (GI50) is 50 to 500 nM in test [1] (Homo sapiens, MCF7, 144 h); < 50 nM in test [2] (setting [6]); 50 to 500 nM in test [3] (setting [7]).
Turning to `Cc1sc2c(c1C)C(c1ccc(N3CCC(O)(CN4CCN(c5cc(F)c([C@H]6c7ccc(O)cc7CC[C@H]6c6ccccc6)c(F)c5)CC4)CC3)cc1)=N[C@@H](Cc1ncco1)c1nnc(C)n1-2` [III-194], the GI50 in test [1] (Homo sapiens, MCF7, 144 h) is > 2500 nM; in test [2] (setting [6]), > 2500 nM; in test [3] (setting [7]), > 2500 nM.
On to `Cc1sc2c(c1C)C(c1ccc(N3CCC(O)(CN4CCN(c5ccc(C6=C(c7ccc(Cl)cc7Cl)CCCc7cc(C(=O)O)ccc76)cc5)CC4)CC3)cc1)=N[C@H](Cc1ncco1)c1nnc(C)n1-2` [IV-30], for which the GI50 was 50 to 500 nM in test [1] (Homo sapiens, MCF7, 144 h); 500 to 2500 nM in test [2] (setting [6]); 500 to 2500 nM in test [3] (setting [7]).
For `Cc1sc2c(c1C)C(c1ccc(N3CCO[C@@H](CNCCOc4ccc([C@@H]5c6ccc(O)cc6CC[C@@H]5c5ccccc5)cc4)C3)cc1)=NC(Cc1ncco1)c1nnc(C)n1-2` (stereo partly drawn) [III-66], the 50% growth inhibitory concentration (GI50) in test [1] (Homo sapiens, MCF7, 144 h) fell in the range of 50 to 500 nM; in test [2] (setting [6]), 50 to 500 nM; in test [3] (setting [7]), 50 to 500 nM.
Regarding `Cc1sc2c(c1C)C(c1ccc(N3CCC(O)(CN4CCN(c5ccc([C@@H]6c7ccc(O)cc7CC[C@@H]6c6ccccc6F)c(F)c5)CC4)CC3)cc1)=N[C@@H](C)c1nnc(C)n1-2` [III-291], the GI50 in test [1] (Homo sapiens, MCF7, 144 h) was < 50 nM; in test [2] (setting [6]), < 50 nM; in test [3] (setting [7]), 500 to 2500 nM.
For the compound `COc1ccc(-c2sc3cc(OC)ccc3c2C(=O)c2ccc(OCCN3CCC4(CC3)CC(Oc3ccc(C5=N[C@@H](Cc6ncco6)c6nnc(C)n6-c6sc(C)c(C)c65)cc3)C4)cc2)cc1` [V-2], the GI50 in test [1] lay in the range of 50 to 500 nM; in test [2] (Table 7-A, T-Rex 293 cells with doxycycline (increased ERα expression), CellTiter-Glo, read-out: (+) Dox GI50) it was 50 to 500 nM; in test [3] (Table 7-A, T-Rex 293 cells without doxycycline (lacking increased ERα expression), CellTiter-Glo, read-out: (−) Dox GI50) it was 500 to 2500 nM.
For the compound `Cc1sc2c(c1C)C(c1ccc(N3CCC(O)(CN4CCN(c5cc(F)c([C@H]6c7ccc(O)cc7CC[C@H]6c6ccc(F)cc6)c(F)c5)CC4)CC3)cc1)=N[C@@H](C)c1nnc(C)n1-2` [III-237], the GI50 in test [1] (Homo sapiens, MCF7, 144 h) was 50 to 500 nM; in test [2] (setting [6]), 50 to 500 nM; in test [3] (setting [7]), 500 to 2500 nM.
Consider `Cc1sc2c(c1C)C(c1ccc(N3CCC(O)(CN4CCN(c5ccc([C@@H]6c7ccc(O)cc7CC[C@@H]6c6ccc(F)cc6F)cc5)CC4)CC3)cc1)=N[C@@H](C)c1nnc(C)n1-2` [III-182], for which the GI50 was 50 to 500 nM in test [1] (Homo sapiens, MCF7, 144 h); < 50 nM in test [2] (setting [6]); 500 to 2500 nM in test [3] (setting [7]).
Consider `Cc1sc2c(c1C)C(c1ccc(OCCCCC3CCN(c4ccc(C(=O)c5c(-c6ccc(O)cc6)sc6cc(O)ccc56)cc4)CC3)cc1)=N[C@@H](Cc1ncco1)c1nnc(C)n1-2` [I-21, (S)-(6-hydroxy-2-(4-hydroxyphenyl)benzo[b]thiophen-3-yl)(4-(4-(4-(4-(2,3,9-trimethyl-6-(oxazol-2-ylmethyl)-6H-thieno[3,2-f][1,2,4]triazolo[4,3-a][1,4]diazepin-4-yl)phenoxy)butyl)piperidin-1-yl)phenyl)methanone], for which the GI50 in test [1] (Homo sapiens, MCF7, 144 h) was < 50 nM; in test [2] (setting [4]), < 50 nM; in test [3] (setting [5]) it was 50 to 500 nM.
For `Cc1sc2c(c1C)C(c1ccc(N3CCN(CC4CN(c5ccc([C@@H]6c7ccc(O)cc7CC[C@@H]6c6ccccc6)cc5)C4)CC3)cc1)=N[C@@H](C)c1nnc(C)n1-2` [III-67], the concentration for 50% growth inhibition (GI50) in test [1] (Homo sapiens, MCF7, 144 h) was < 50 nM; in test [2] (setting [6]), < 50 nM; in test [3] (setting [7]), < 50 nM.
As for `Cc1sc2c(c1C)C(c1ccc(N3CC4(CCC(CN5CCN(c6ccc([C@@H]7c8ccc(O)cc8CC[C@@H]7c7ccccc7)cc6)CC5)CC4)C3)cc1)=N[C@@H](C)c1nnc(C)n1-2` [III-230], the GI50 was 50 to 500 nM in test [1] (Homo sapiens, MCF7, 144 h); < 50 nM in test [2] (setting [6]); > 2500 nM in test [3] (setting [7]).
For `CC1=C(c2c(F)cc(F)cc2F)C(c2ccc(OCCN3CCCN(c4ccc(C5=N[C@@H](C)c6nnc(C)n6-c6sc(C)c(C)c65)cc4)CC3)cc2)Oc2ccc(O)cc21` (stereo partly drawn) [V-6], in that order: 50 to 500 nM, 50 to 500 nM and 500 to 2500 nM.
For `Cc1sc2c(c1C)C(c1ccc(N3CC(CC4(O)CCN(c5ccc([C@@H]6c7ccc(O)cc7CC[C@@H]6c6ccccc6)cc5)CC4)C3)cc1)=N[C@@H](C)c1nnc(C)n1-2` [III-158], in that order: < 50 nM, < 50 nM and 50 to 500 nM.
For `Cc1cc([C@H]2c3ccc(O)cc3CC[C@H]2c2ccccc2)c(F)cc1N1CCN(CC2(O)CCN(c3ccc(C4=N[C@@H](C)c5nnc(C)n5-c5sc(C)c(C)c54)cc3)CC2)CC1` [III-288], in that order: 50 to 500 nM, 50 to 500 nM and 500 to 2500 nM.
`Cc1sc2c(c1C)C(c1ccc(C3CN(CCN4CC(COc5ccc([C@@H]6c7ccc(O)cc7CC[C@@H]6c6ccccc6)cc5)C4)C3)cc1)=N[C@@H](C)c1nnc(C)n1-2` [III-95]: the concentration for 50% growth inhibition (GI50) was < 50 nM in test [1] (Homo sapiens, MCF7, 144 h); < 50 nM in test [2] (setting [6]); 50 to 500 nM in test [3] (setting [7]).
On to `Cc1sc2c(c1C)C(c1ccc(N3CCC(O)(CN4CCN(c5ccc([C@@H]6c7ccc(O)cc7CC[C@@H]6c6ccccc6)nn5)CC4)CC3)cc1)=N[C@@H](C)c1nnc(C)n1-2` [III-217], for which the GI50 is 50 to 500 nM in test [1] (Homo sapiens, MCF7, 144 h); < 50 nM in test [2] (setting [6]); 50 to 500 nM in test [3] (setting [7]).
For `Cc1sc2c(c1C)C(c1ccc(N3CCC4(CCN(c5ccc([C@@H]6c7ccc(O)cc7CC[C@@H]6c6ccccc6)cc5)CC4)C3)cc1)=N[C@@H](C)c1nnc(C)n1-2` [III-120], the GI50 was 50 to 500 nM in test [1] (Homo sapiens, MCF7, 144 h); > 2500 nM in test [2] (setting [6]); 500 to 2500 nM in test [3] (setting [7]).
For `Cc1sc2c(c1C)C(c1ccc(N3CCC(O)(CN4CCN(c5ccc(C6=C(c7ccc(F)cc7F)CCCc7cc(C(=O)O)ccc76)cc5)CC4)CC3)cc1)=N[C@@H](C)c1nnc(C)n1-2` [IV-26], in that order: < 50 nM, < 50 nM and 500 to 2500 nM.
For `Cc1sc2c(c1C)C(c1ccc(N3CC(CC4CCN(C(=O)C5CN(c6ccc([C@@H]7c8ccc(O)cc8CC[C@@H]7c7ccccc7)cc6)C5)CC4)C3)cc1)=N[C@@H](C)c1nnc(C)n1-2` [III-135], in that order: < 50 nM, < 50 nM and 500 to 2500 nM.

The values are drawn from US12558428B2, “Heterobifunctional compounds and their use in treating disease” (Halda Therapeutics OpCo, Inc., priority 2024, dated 2026).
